Biological target: cloned human glucagon receptor (Homo sapiens, UniProt P47871)
Experiment: Glucagon Receptor (hGlucR) Binding Assay
Method: This plasmid DNA is transfected into 293 HEK cells and selected with 200 μg/mL Hygromycin.
Crude plasma membranes are prepared using cells from suspension culture. The cells are lysed on ice in hypotonic buffer containing 25 mM Tris HCL, pH 7.5, 1 mM MgCl2, DNAsel, 20 u/mL, and Roche Complete Inhibitors-without EDTA. The cell suspension is homogenized with a glass dounce homogenizer using a Teflon pestle for 25 strokes. The homogenate is centrifuged at 4 degrees C. at 1800×g for 15 mins. The supernate is collected and the pellet is resuspended in hypotonic buffer and rehomogenized. The mixture is centrifuged at 1800×g for 15 mins. The second supernate is combined with the first supernate. The combined supernates are recentrifuged at 1800×g for 15 mins to clarify. The clarified supernate is transferred to high speed tubes and centrifuged at 25000×g for 30 minutes at 4 degrees C. The membrane pellet is resuspended in homogenization buffer and stored as frozen aliquots at −80 degree C. freezer until needed.
The specific activity is 2200 Ci/mmol.
The binding buffer contains 25 mM Hepes, pH 7.4, 2.5 mM CaCl2, 1 mM MgCl2, 0.1% fatty acid free BSA, (ICN), 0.003% tween-20, and Roche Complete Inhibitors without EDTA. […] Test compounds are dissolved in DMSO and serially diluted in DMSO. […] Plates are read with a MicroBeta after 14 hours of settling time at room temp.

Sequence of cloned human glucagon receptor (P47871 26-477): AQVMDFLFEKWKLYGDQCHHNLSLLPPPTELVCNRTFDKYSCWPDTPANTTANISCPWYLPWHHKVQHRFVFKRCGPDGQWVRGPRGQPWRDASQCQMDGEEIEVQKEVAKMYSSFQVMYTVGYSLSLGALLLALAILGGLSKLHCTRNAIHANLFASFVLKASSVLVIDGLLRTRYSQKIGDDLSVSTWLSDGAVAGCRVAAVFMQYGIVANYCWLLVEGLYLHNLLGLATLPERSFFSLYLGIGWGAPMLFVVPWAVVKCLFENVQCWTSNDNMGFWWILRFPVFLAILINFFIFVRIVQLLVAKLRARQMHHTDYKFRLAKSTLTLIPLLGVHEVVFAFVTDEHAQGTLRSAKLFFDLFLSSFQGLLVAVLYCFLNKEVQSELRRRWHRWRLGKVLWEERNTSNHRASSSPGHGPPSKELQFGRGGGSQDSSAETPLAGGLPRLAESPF

Ki [nM] | Structure (SMILES)
61 | Cc1cc(OCC(c2ccc(C(=O)NCCC(=O)O)cc2)C(C)C)cc(C)c1-c1ccc(C(C)(C)C)cc1 (centres unmarked)
87 | C=CCC(CC=C)(COc1cc(C)c(-c2ccc(C(F)(F)F)cc2)c(C)c1)c1ccc(C(=O)NCCC(=O)O)cc1

— US8076374B2 (Eli Lilly and Company, priority 2005, dated 2011)
